Where two headings read alike, the source gives them in different places.
Legend:
MAPK14 [1] = molecular target: MAPK14 (Homo sapiens, UniProt Q16539); assay: TPP-TR in living HL-60 cells; format: cell-based; settings: 20 μM, single set (no replicates)
Description: (§1) HL-60 cells (ATCC No. CCL-240) were expanded to about […] in 80 mL cell culture medium (RPMI-1640 supplemented with 10% (v/v) FBS, 1% (v/v) penicillin-streptomycin and 1% (v/v) L-glutamine solution) and divided into four aliquots (20 mL each, 25 million cells per flask). […] The same volume of DMSO was added to the remaining aliquot serving as the vehicle (DMSO) control. After incubation (1 h, 37 °C, 5% CO2, in cell culture CO2 incubator), the cell suspensions were transferred into 50 mL conical tubes, cell number and viability were determined, and after centrifugation (300 relative centrifugal force (rcf), 3 min, room temperature (r.t.)), the supernatants were completely removed and discarded. The cells were washed using 20 mL Dulbecco’s phosphate-buffered saline (PBS), respectively, by resuspension and centrifugation (300 rcf, 3 min, r.t.). After the complete removal of the supernatants, the cells were transferred into pre-weighed 2 mL Eppendorf tubes using 0.5 mL PBS (r.t.), respectively, for resuspending. After centrifugation (300 rcf, 3 min, r.t.) and removing as much as possible of the supernatants, the cell wet weights were determined.
(§2) The suspensions were shortly centrifuged (1 s or less) using a benchtop centrifuge that was equipped with an inset for PCR tubes to release trapped air and to achieve an even liquid level without pelleting the cells. The 100 µL cell suspensions were then temperature treated by a 7 min pre-incubation at r.t., a 3 min incubation at the following different temperatures in the PCR cycler (DNA Engine Tetrad 2, lid temperature 70 °C, gradient block 1: 36–55 °C, gradient block 2: 48–67 °C), and a 3 min post-incubation at r.t. in a metal heating block for uniform heat dissipation.
(§3) The cells were lysed by four freeze/thaw cycles consisting of thawing the samples (in a heat block set to 25 °C and shaking at 1250 rpm) accompanied by mixing them several times by inversion and then shock freezing them again in liquid nitrogen. The resulting lysates were kept cold (on ice or 4 °C) from then on. After centrifugation (20,000 rcf, 30 min, 4 °C) to pellet the cell debris together with precipitated and aggregated proteins, the supernatants were recovered and, after determining the total protein concentration (Pierce 660 nm Protein Assay, BSA as standard), the resulting cell extracts containing the fraction of soluble, non-denatured proteins were shock frozen in liquid nitrogen and stored at −80 °C.
(§4) For each sample set comprising ten temperature range samples, the same volume of the cell extracts containing the fraction of soluble, non-denatured proteins was used for further analysis. Volume calculation for 30 µg total protein was performed as described for SDS-PAGE and immunoblotting. The calculated volume was respectively transferred into 0.5 mL LoBind Eppendorf tubes and evaporated to dryness using vacuum centrifugation (SpeedVac concentrator, Eppendorf, Hamburg, Germany). The dried proteins were each reconstituted in 10 µL of SDS sample buffer (containing DTT) and incubated for 30 min at 50 °C with shaking (700 rpm). 1.111 µL 1 M iodoacetamide (IAA) was added to each sample (final 100 mM IAA), then the samples were mixed and incubated for 30 min at r.t. in the dark. Sample quality was controlled by SDS-PAGE/silver staining using 0.926 µL of each sample (2.5 µg on average for the two lowest temperature samples; 26-well 4–12% Bis-Tris polyacrylamide gels, Novex NuPAGE, Thermo Scientific; 15 min at 50 V, about 1.5 h at 200 V using the recommended MOPS running buffer).

NUDT1 = NUDT1 (Homo sapiens, UniProt P36639); assay: TPP-CCR in living HL-60 cells
MAPK14 [2] = system: MAPK14; parameters: method as in Seashore-Ludlow et al., Biochemistry 2018; settings: MAPK14 only, ref Seashore-Ludlow et al., Biochemistry 2018, cited from earlier work
MAPK3 = molecular target: T1, MAPK3 (Homo sapiens, UniProt P27361); assay: TPP-TR in living HL-60 cells; format: cell-based; settings: 20 μM, single set (no replicates)
T1 construct: endogenous in cells; host or cells: HL-60 (ATCC CCL-240)
T1 sequence (P27361 whole entry): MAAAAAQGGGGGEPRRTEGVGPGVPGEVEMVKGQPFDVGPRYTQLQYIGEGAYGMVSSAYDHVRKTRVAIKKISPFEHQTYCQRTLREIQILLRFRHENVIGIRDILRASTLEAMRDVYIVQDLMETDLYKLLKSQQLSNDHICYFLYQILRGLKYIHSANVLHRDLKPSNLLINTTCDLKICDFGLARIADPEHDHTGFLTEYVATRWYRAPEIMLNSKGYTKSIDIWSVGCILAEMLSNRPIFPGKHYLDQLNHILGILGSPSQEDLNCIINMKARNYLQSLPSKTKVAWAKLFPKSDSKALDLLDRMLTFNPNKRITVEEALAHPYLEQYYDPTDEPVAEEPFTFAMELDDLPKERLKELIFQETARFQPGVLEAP
Description: as §1, §2, §3, §4

MYLK = system: MYLK; parameters: method as in PMID 22037378; settings: cited from earlier work

MAPK14 (Homo sapiens, UniProt Q16539), sequence (Q16539 whole entry): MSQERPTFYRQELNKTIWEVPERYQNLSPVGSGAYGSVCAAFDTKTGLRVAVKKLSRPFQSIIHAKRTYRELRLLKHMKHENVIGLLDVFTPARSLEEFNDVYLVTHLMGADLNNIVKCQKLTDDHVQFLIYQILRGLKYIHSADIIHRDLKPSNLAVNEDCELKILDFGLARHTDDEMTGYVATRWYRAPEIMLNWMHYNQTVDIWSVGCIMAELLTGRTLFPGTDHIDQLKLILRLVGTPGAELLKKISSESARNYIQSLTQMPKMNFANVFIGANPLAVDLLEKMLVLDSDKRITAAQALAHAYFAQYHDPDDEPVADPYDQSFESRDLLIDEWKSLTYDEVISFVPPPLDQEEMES

## Cn1c(NC[C@@H](N)Cc2ccccc2)nc(-c2ccncc2)c(-c2ccc3ccccc3c2)c1=O [AMG-548]
MAPK14 [1]
  thermal stabilization in melting curves (MAPK14): thermal stabilizations
NUDT1
  EC50: 2290 nM
NUDT1; living HL-60 cells, […] °C, TMT-MS
  Hill slope (NUDT1): 0.77
MAPK14 [2]; extrapolated to 50°C and extracted from figure 3b
  pEC50, Living cells: 8.57
MAPK14 [2]; extrapolated to 51°C and extracted from figure 3b
  pEC50, Living cells: 8.23

## Cc1cnc(Nc2ccc(F)cc2Cl)nc1-c1c[nH]c(C(=O)N[C@H](CO)c2cccc(Cl)c2)c1 [ERK 11e]
MAPK3
  thermal stabilization in melting curves (MAPK3): thermal stabilization

## C[S+]([O-])c1ccc(-c2nc(-c3ccncc3)c(-c3ccc(F)cc3)[nH]2)cc1 (stereo not shown) [SB203580]
MYLK
  activity towards MYLK: inactivity

— PMC9147192, “Small Molecule Arranged Thermal Proximity Coaggregation (smarTPCA)—A Novel Approach to Characterize Protein–Protein Interactions in Living Cells by Similar Isothermal Dose–Responses” (International Journal of Molecular Sciences, 2022)
